According to patent US20250171495A1, “MUTLI-TARGETED SERINE PROTEASE INHIBITORS FOR TREATMENT OF CANCER AND VIRAL INFECTION” (Washington University, priority 2023, published 2025):
Like-named read-outs stand apart in the source and are kept apart here.

Assays:
Type in all cases: biochemical
TMPRSS2 [1] = target: T1, TMPRSS2 (Homo sapiens, UniProt O15393); assay: Fluorogenic kinetic enzyme inhibitor assay, TMPRSS2; set-up: purchased Cusabio Technology CSB-YP023924HU
Target sequence in this assay (O15393 106-492 limits assumed): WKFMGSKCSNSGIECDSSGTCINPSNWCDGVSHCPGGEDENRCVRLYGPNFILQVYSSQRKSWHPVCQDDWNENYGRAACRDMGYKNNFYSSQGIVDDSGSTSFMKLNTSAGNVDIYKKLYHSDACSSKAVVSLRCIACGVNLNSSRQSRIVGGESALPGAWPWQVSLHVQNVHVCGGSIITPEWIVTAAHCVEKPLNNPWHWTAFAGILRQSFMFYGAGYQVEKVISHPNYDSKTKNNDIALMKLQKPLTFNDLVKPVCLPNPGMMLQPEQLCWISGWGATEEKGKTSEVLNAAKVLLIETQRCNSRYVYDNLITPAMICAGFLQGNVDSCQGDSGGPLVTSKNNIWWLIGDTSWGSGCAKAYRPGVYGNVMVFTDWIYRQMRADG

hepsin = target: T2, hepsin (Homo sapiens, UniProt P05981); assay: HyCoSuL P4-P2 substrate specificity screening, hepsin; details: for P2 Position Substrate Activity for hepsin (percent substrate cleavage/proteolysis): residue fixed at P2 position, P1-Arg HyCoSuL, 100 μM, best recognized amino acid set to 100%; for P3 Position Various Amino Acids Substrate Activity, hepsin (percent substrate cleavage/proteolysis): residue fixed at P3 position of substrate library; for P4 Position Various Amino Acids Substrate Activity, hepsin (percent substrate proteolysis/cleavage): residue fixed at P4 position of substrate library
T2 construct: purchased R&D Systems 4776-SE-010
T2 sequence (P05981 163-417 limits assumed): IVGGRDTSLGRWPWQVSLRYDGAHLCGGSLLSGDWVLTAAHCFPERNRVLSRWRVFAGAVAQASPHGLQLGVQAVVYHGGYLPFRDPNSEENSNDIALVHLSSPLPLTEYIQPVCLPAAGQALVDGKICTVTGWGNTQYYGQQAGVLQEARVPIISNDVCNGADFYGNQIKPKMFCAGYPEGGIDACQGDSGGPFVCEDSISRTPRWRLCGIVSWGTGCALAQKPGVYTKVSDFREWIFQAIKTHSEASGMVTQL
T2 sequence (P05981 1-162 partner limits assumed): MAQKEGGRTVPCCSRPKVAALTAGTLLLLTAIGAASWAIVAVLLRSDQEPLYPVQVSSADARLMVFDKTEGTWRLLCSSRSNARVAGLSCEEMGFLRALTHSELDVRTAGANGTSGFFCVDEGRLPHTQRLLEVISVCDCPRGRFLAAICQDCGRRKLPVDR

TMPRSS2 [2] = target: T1, TMPRSS2; assay: PS-SCL / HyCoSuL substrate specificity screening, TMPRSS2; details: for P2 Position Substrate Activity for TMPRSS2 (percent substrate cleavage/proteolysis): residue fixed at P2 position of substrate library, best recognized amino acid set to 100%; for P3 Position Various Amino Acids Substrate Activity, TMPRSS2 (percent substrate cleavage/proteolysis): residue fixed at P3 position of substrate library; for P4 Position Various Amino Acids Substrate Activity, TMPRSS2 (percent substrate proteolysis/cleavage): residue fixed at P4 position of substrate library
Target sequence in this assay (O15393 whole entry): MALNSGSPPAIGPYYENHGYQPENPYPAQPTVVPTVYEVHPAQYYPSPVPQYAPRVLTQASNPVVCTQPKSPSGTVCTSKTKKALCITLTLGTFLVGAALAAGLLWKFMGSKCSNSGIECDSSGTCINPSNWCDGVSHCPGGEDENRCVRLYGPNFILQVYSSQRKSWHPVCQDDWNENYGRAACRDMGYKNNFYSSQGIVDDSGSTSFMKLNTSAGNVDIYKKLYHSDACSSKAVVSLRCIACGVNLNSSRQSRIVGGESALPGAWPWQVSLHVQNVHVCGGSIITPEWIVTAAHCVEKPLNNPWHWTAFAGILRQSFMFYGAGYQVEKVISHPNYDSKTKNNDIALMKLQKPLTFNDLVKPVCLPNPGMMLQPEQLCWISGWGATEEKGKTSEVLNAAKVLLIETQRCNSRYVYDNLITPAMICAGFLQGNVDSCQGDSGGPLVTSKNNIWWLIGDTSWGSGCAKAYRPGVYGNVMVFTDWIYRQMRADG

matriptase = target: T3, matriptase (Homo sapiens, UniProt Q9Y5Y6); assay: HyCoSuL P4-P2 substrate specificity screening, matriptase; details: for P2 Position Substrate Activity for matriptase (percent substrate cleavage/proteolysis): residue fixed at P2 position, P1-Arg HyCoSuL, 100 μM, best recognized amino acid set to 100%; for P3 Position Various Amino Acids Substrate Activity, matriptase (percent substrate cleavage/proteolysis): residue fixed at P3 position of substrate library; for P4 Position Various Amino Acids Substrate Activity, matriptase (percent substrate proteolysis/cleavage): residue fixed at P4 position of substrate library
T3 sequence (Q9Y5Y6 1-855): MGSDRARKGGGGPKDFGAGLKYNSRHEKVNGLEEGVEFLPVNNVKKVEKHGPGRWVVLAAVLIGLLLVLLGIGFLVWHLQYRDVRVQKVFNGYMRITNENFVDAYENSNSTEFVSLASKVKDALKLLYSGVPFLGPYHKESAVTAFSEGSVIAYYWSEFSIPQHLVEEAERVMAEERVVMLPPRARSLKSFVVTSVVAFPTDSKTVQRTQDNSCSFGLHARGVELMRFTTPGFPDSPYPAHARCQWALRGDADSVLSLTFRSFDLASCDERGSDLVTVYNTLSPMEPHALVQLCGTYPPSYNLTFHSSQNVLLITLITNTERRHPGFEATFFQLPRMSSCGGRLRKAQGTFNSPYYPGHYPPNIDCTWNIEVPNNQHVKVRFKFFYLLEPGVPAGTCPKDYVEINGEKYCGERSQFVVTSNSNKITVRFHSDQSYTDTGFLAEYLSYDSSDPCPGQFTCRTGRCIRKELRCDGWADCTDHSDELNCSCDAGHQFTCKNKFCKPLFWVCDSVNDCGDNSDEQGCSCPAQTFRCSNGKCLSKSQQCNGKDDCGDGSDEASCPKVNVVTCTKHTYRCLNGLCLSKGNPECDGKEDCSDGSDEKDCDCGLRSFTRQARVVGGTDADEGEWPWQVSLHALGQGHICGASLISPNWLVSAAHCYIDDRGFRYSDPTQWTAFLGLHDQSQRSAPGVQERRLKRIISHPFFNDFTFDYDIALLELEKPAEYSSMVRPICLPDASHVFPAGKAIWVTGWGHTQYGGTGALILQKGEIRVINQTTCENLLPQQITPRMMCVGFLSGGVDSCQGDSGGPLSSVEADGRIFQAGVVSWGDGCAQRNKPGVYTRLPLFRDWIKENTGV

HGFA = target: T4, HGFA (Homo sapiens, UniProt Q04756); assay: HyCoSuL P4-P2 substrate specificity screening, HGFA; details: for P2 Position Substrate Activity for HGFA (percent substrate cleavage/proteolysis): residue fixed at P2 position, P1-Arg HyCoSuL, 100 μM, best recognized amino acid set to 100%; for P3 Position Various Amino Acids Substrate Activity, HGFA (percent substrate cleavage/proteolysis): residue fixed at P3 position of substrate library; for P4 Position Various Amino Acids Substrate Activity, HGFA (percent substrate proteolysis/cleavage): residue fixed at P4 position of substrate library
T4 sequence (Q04756 373-655): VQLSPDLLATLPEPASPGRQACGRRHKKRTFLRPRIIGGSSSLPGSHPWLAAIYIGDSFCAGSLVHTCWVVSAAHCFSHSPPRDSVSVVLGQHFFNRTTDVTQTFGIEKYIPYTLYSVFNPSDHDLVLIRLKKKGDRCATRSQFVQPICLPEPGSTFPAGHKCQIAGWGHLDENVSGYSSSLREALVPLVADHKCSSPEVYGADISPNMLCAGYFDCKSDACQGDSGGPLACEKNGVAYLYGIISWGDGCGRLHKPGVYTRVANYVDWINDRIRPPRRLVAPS

N=C(N)NCCC[C@H](NC(=O)[C@H](Cc1ccccc1)NC(=O)[C@H](N)Cc1c[nH]c2ccccc12)C(=O)c1nc2ccccc2s1 [PK-1-18A1, N-[(S)-1-[(1,3-benzothiazol-2-yl)carbonyl]-4-guanidinobutyl](S)-2-[(R)-2-amino-3-(3-indolyl)propionylamino]-3-phenylpropionamide]
IC50 (TMPRSS2 [1]; read-out: TMPRSS2 IC50): 25.8 nM

C=CCOC(=O)CC[C@H](NC(=O)[C@@H]1Cc2ccccc2N1C(C)=O)C(=O)N[C@@H](Cc1ccc(F)cc1)C(=O)N[C@@H](CCCNC(=N)N)C(=O)c1nc2ccccc2s1 [MF1067B, allyl (S)-4-[(S)-1-acetyl-2-indolinylcarbonylamino]-4-[N-(S)-2-(p-fluorophenyl)-1-[N-(S)-1-[(1,3-benzothiazol-2-yl)carbonyl]-4-guanidinobutylcarbamoyl]ethylcarbamoyl]butyrate]
IC50 (TMPRSS2 [1]): 0.2 nM

CCC(C)[C@H](NC(C)=O)C(=O)N[C@@H](CCC(=O)O)C(=O)N[C@@H](Cc1ccccc1)C(=O)N[C@H](CCCNC(=N)N)C(=O)c1nc2ccccc2s1 (stereo partly drawn) [MM4037-1, (S)-4-[(2S)-2-acetylamino-3-methylvalerylamino]-4-[N-(S)-1-[N-(R)-1-[(1,3-benzothiazol-2-yl)carbonyl]-4-guanidinobutylcarbamoyl]-2-phenylethylcarbamoyl]butyric acid]
IC50 (TMPRSS2 [1]; read-out: TMPRSS2 IC50): 0.385 nM

CC(=O)N[C@H]1Cc2ccc(cc2)Oc2ccc(cc2)C[C@@H](C(=O)N[C@@H](CCCNC(=N)N)C(=O)c2nc3ccccc3s2)NC(=O)[C@H](CC(C)C)NC1=O [VD5076B, N-[(S)-1-[(1,3-benzothiazol-2-yl)carbonyl]-4-guanidinobutyl]-(8S,11S,14S)-14-acetylamino-11-isobutyl-10,13-dioxo-2-oxa-9,12-diazatricyclo[14.2.2.2^3,^6]docosa-1(18),3,5,16,19,21-hexaene-8-carboxamide]
IC50 (TMPRSS2 [1]; read-out: TMPRSS2 IC50): 1.25 nM

CC(=O)N[C@@H](CCCCNC(=N)N)C(=O)N[C@@H](Cc1cncn1COCc1ccccc1)C(=O)N[C@@H](CCC(C)C)C(=O)N[C@H](CCCNC(=N)N)C(=O)c1nc2ccccc2s1 [MM4031-1, N-[(R)-1-[(1,3-benzothiazol-2-yl)carbonyl]-4-guanidinobutyl](S)-2-[(S)-2-[(S)-1-acetylamino-5-guanidinopentylcarbonylamino]-3-{1-[(benzyloxy)methyl]-5-imidazolyl}propionylamino]-5-methylhexanamide]
IC50 (TMPRSS2 [1]; read-out: TMPRSS2 IC50): 7.54 nM

C=CCOC(=O)CC[C@H](NC(=O)[C@@H]1Cc2ccccc2N1C(C)=O)C(=O)N[C@@H](Cc1ccc(F)cc1)C(=O)N[C@H](CCCNC(=N)N)C(=O)c1nc2ccccc2s1 [MF1067A, allyl (S)-4-[(S)-1-acetyl-2-indolinylcarbonylamino]-4-[N-(S)-2-(p-fluorophenyl)-1-[N-(R)-1-[(1,3-benzothiazol-2-yl)carbonyl]-4-guanidinobutylcarbamoyl]ethylcarbamoyl]butyrate]
IC50 (TMPRSS2 [1]): 0.431 nM

CC(C)CC[C@H](NC(=O)OCC1c2ccccc2-c2ccccc21)C(=O)N[C@@H](CCCNC(=N)N)C(=O)c1nc2ccccc2s1 [MF1164, (S)-4-methyl-1-[N-(S)-1-[(1,3-benzothiazol-2-yl)carbonyl]-4-guanidinobutylcarbamoyl] pentyl (9H-fluoren-9-yl)methanecarbamate]
IC50 (TMPRSS2 [1]; read-out: TMPRSS2 IC50): 458 nM

CC(=O)N[C@H](Cc1c[nH]c2ccccc12)C(=O)N[C@@H](CC(C)C)C(=O)N[C@@H](CCCNC(=N)N)C(=O)c1nc2ccc(C(=O)O)cc2s1 [PK-1-94, 2-[(S)-2-[(S)-2-[(R)-2-acetylamino-3-(3-indolyl)propionylamino]-4-methylvalerylamino]-5-guanidinovaleryl]-1,3-benzothiazole-6-carboxylic acid]
IC50 (TMPRSS2 [1]; read-out: TMPRSS2 IC50): 1.91 nM

O=C(O)[C@@H]1CCCCN1 [L-Pip]
P2 Position Substrate Activity for hepsin (percent substrate cleavage/proteolysis) (hepsin): 10.66% | P3 Position Various Amino Acids Substrate Activity, hepsin (percent substrate cleavage/proteolysis) (hepsin): 1.64% | P4 Position Various Amino Acids Substrate Activity, hepsin (percent substrate proteolysis/cleavage) (hepsin): 34.68% | P2 Position Substrate Activity for TMPRSS2 (percent substrate cleavage/proteolysis) (TMPRSS2 [2]): 24.73% | P3 Position Various Amino Acids Substrate Activity, TMPRSS2 (percent substrate cleavage/proteolysis) (TMPRSS2 [2]): 0.00% | P4 Position Various Amino Acids Substrate Activity, TMPRSS2 (percent substrate proteolysis/cleavage) (TMPRSS2 [2]): 15.31% | P2 Position Substrate Activity for matriptase (percent substrate cleavage/proteolysis) (matriptase): 10% | P3 Position Various Amino Acids Substrate Activity, matriptase (percent substrate cleavage/proteolysis) (matriptase): 0% | P4 Position Various Amino Acids Substrate Activity, matriptase (percent substrate proteolysis/cleavage) (matriptase): 11% | P2 Position Substrate Activity for HGFA (percent substrate cleavage/proteolysis) (HGFA): 1.75% | P3 Position Various Amino Acids Substrate Activity, HGFA (percent substrate cleavage/proteolysis) (HGFA): 0.83% | P4 Position Various Amino Acids Substrate Activity, HGFA (percent substrate proteolysis/cleavage) (HGFA): 9.25%

D-Leu
P2 Position Substrate Activity for hepsin (percent substrate cleavage/proteolysis) (hepsin): 0.00% | P3 Position Various Amino Acids Substrate Activity, hepsin (percent substrate cleavage/proteolysis) (hepsin): 20.14% | P4 Position Various Amino Acids Substrate Activity, hepsin (percent substrate proteolysis/cleavage) (hepsin): 24.76% | P2 Position Substrate Activity for TMPRSS2 (percent substrate cleavage/proteolysis) (TMPRSS2 [2]): 0.00% | P3 Position Various Amino Acids Substrate Activity, TMPRSS2 (percent substrate cleavage/proteolysis) (TMPRSS2 [2]): 0.00% | P4 Position Various Amino Acids Substrate Activity, TMPRSS2 (percent substrate proteolysis/cleavage) (TMPRSS2 [2]): 28.04% | P2 Position Substrate Activity for matriptase (percent substrate cleavage/proteolysis) (matriptase): 0% | P3 Position Various Amino Acids Substrate Activity, matriptase (percent substrate cleavage/proteolysis) (matriptase): 4% | P4 Position Various Amino Acids Substrate Activity, matriptase (percent substrate proteolysis/cleavage) (matriptase): 9% | P2 Position Substrate Activity for HGFA (percent substrate cleavage/proteolysis) (HGFA): 0.00% | P3 Position Various Amino Acids Substrate Activity, HGFA (percent substrate cleavage/proteolysis) (HGFA): 7.08% | P4 Position Various Amino Acids Substrate Activity, HGFA (percent substrate proteolysis/cleavage) (HGFA): 10.56%

CC(C)CC[C@H](N)C(=O)O [L-hLeu]
P2 Position Substrate Activity for hepsin (percent substrate cleavage/proteolysis) (hepsin): 14.44% | P3 Position Various Amino Acids Substrate Activity, hepsin (percent substrate cleavage/proteolysis) (hepsin): 13.84% | P4 Position Various Amino Acids Substrate Activity, hepsin (percent substrate proteolysis/cleavage) (hepsin): 41.61% | P2 Position Substrate Activity for TMPRSS2 (percent substrate cleavage/proteolysis) (TMPRSS2 [2]): 8.15% | P3 Position Various Amino Acids Substrate Activity, TMPRSS2 (percent substrate cleavage/proteolysis) (TMPRSS2 [2]): 35.41% | P4 Position Various Amino Acids Substrate Activity, TMPRSS2 (percent substrate proteolysis/cleavage) (TMPRSS2 [2]): 53.91% | P2 Position Substrate Activity for matriptase (percent substrate cleavage/proteolysis) (matriptase): 5% | P3 Position Various Amino Acids Substrate Activity, matriptase (percent substrate cleavage/proteolysis) (matriptase): 25% | P4 Position Various Amino Acids Substrate Activity, matriptase (percent substrate proteolysis/cleavage) (matriptase): 27% | P2 Position Substrate Activity for HGFA (percent substrate cleavage/proteolysis) (HGFA): 72.69% | P3 Position Various Amino Acids Substrate Activity, HGFA (percent substrate cleavage/proteolysis) (HGFA): 23.44% | P4 Position Various Amino Acids Substrate Activity, HGFA (percent substrate proteolysis/cleavage) (HGFA): 14.86%

N[C@@H](Cc1ccc(F)cc1)C(=O)O [L-Phe(4-F)]
P2 Position Substrate Activity for hepsin (percent substrate cleavage/proteolysis) (hepsin): 32.86% | P3 Position Various Amino Acids Substrate Activity, hepsin (percent substrate cleavage/proteolysis) (hepsin): 5.16% | P4 Position Various Amino Acids Substrate Activity, hepsin (percent substrate proteolysis/cleavage) (hepsin): 27.78% | P2 Position Substrate Activity for TMPRSS2 (percent substrate cleavage/proteolysis) (TMPRSS2 [2]): 100.00% | P3 Position Various Amino Acids Substrate Activity, TMPRSS2 (percent substrate cleavage/proteolysis) (TMPRSS2 [2]): 14.82% | P4 Position Various Amino Acids Substrate Activity, TMPRSS2 (percent substrate proteolysis/cleavage) (TMPRSS2 [2]): 21.80% | P2 Position Substrate Activity for matriptase (percent substrate cleavage/proteolysis) (matriptase): 65% | P3 Position Various Amino Acids Substrate Activity, matriptase (percent substrate cleavage/proteolysis) (matriptase): 11% | P4 Position Various Amino Acids Substrate Activity, matriptase (percent substrate proteolysis/cleavage) (matriptase): 8% | P2 Position Substrate Activity for HGFA (percent substrate cleavage/proteolysis) (HGFA): 4.84% | P3 Position Various Amino Acids Substrate Activity, HGFA (percent substrate cleavage/proteolysis) (HGFA): 15.01% | P4 Position Various Amino Acids Substrate Activity, HGFA (percent substrate proteolysis/cleavage) (HGFA): 11.22%
